In brackets after ≈: the same amount, converted by molar mass.
How the values were obtained:
Assay in all cases: In vitro antibacterial activity, minimum inhibitory concentration
Type in all cases: cell-based
P.aeruginosa ATCC27853 = conditions: Pseudomonas aeruginosa; P.aeruginosa ATCC27853; read-out: Minimum Inhibitory Concentration (MIC)
Description: (§1) As reference compounds, Cefotaxime (CTX), Ceftazidime (CAZ) and Cefpirome (CPR) were employed.

K.oxytoca C4022 = conditions: Klebsiella oxytoca; K.oxytoca C4022; read-out: Minimum Inhibitory Concentration (MIC)
Description: as §1

S.aureus ATCC29213 = conditions: Staphylococcus aureus; S.aureus ATCC29213; read-out: Minimum Inhibitory Concentration (MIC)
Description: as §1

MRSA C2208 = conditions: Staphylococcus aureus; MRSA C2208; read-out: Minimum Inhibitory Concentration (MIC)
Description: as §1

S.marcescens ATCC27117 = conditions: Serratia marcescens; S.marcescens ATCC27117; read-out: Minimum Inhibitory Concentration (MIC)
Description: as §1

E.coli C4002 = conditions: Escherichia coli; E.coli C4002; read-out: Minimum Inhibitory Concentration (MIC)
Description: as §1

S.epidermidis ATCC12228 = conditions: Staphylococcus epidermidis; S.epidermidis ATCC12228; read-out: Minimum Inhibitory Concentration (MIC)
Description: as §1

P.mirabilis ATCC25933 = conditions: Proteus mirabilis; P.mirabilis ATCC25933; read-out: Minimum Inhibitory Concentration (MIC)
Description: as §1

P.aeruginosa C4070 = conditions: Pseudomonas aeruginosa; P.aeruginosa C4070; read-out: Minimum Inhibitory Concentration (MIC)
Description: as §1

E.coli ATCC10536 = conditions: Escherichia coli; E.coli ATCC10536; read-out: Minimum Inhibitory Concentration (MIC)
Description: as §1

S.pyogenes ATCC 8668 = conditions: Streptococcus pyogenes, ATCC8668; S.pyogenes ATCC 8668; read-out: Minimum Inhibitory Concentration (MIC)
Description: as §1

S.Faecalis ATCC29212 = conditions: Enterococcus faecalis
Description: as §1

E.coli ATCC25922 = conditions: Escherichia coli; E.coli ATCC25922; read-out: Minimum Inhibitory Concentration (MIC)
Description: as §1

P.aeruginosa ATCC10145 = conditions: Pseudomonas aeruginosa; P.aeruginosa ATCC10145; read-out: Minimum Inhibitory Concentration (MIC)
Description: as §1

E.cloacae C4008 = conditions: Enterobacter cloacae; E.cloacae C4008; read-out: Minimum Inhibitory Concentration (MIC)
Description: as §1

P.rettgeri ATCC9919 = conditions: Providencia rettgeri; P.rettgeri ATCC9919; read-out: Minimum Inhibitory Concentration (MIC)
Description: as §1

E.cloacae C4009 = conditions: Enterobacter cloacae; E.cloacae C4009; read-out: Minimum Inhibitory Concentration (MIC)
Description: as §1

S.aureus Smith = conditions: Staphylococcus aureus; S.aureus Smith; read-out: Minimum Inhibitory Concentration (MIC)
Description: as §1

S.aureus C4036 = conditions: Staphylococcus aureus; S.aureus C4036; read-out: Minimum Inhibitory Concentration (MIC)
Description: as §1

S.marcescens C1052 = conditions: Serratia marcescens; S.marcescens C1052; read-out: Minimum Inhibitory Concentration (MIC)
Description: as §1

K.pneumoniae C1040 = conditions: Klebsiella pneumoniae; K.pneumoniae C1040; read-out: Minimum Inhibitory Concentration (MIC)
Description: as §1

S.pyogenes C4003 = conditions: Streptococcus pyogenes; S.pyogenes C4003; read-out: Minimum Inhibitory Concentration (MIC)
Description: as §1

K.pneumoniae ATCC10031 = conditions: Klebsiella pneumoniae; K.pneumoniae ATCC10031; read-out: Minimum Inhibitory Concentration (MIC)
Description: as §1

S.typhimurium C4045 = conditions: Salmonella enterica; S.typhimurium C4045; read-out: Minimum Inhibitory Concentration (MIC)
Description: as §1

P.aeruginosa C2027 = conditions: Pseudomonas aeruginosa; P.aeruginosa C2027; read-out: Minimum Inhibitory Concentration (MIC)
Description: as §1

| MIC (P.aeruginosa ATCC27853) | MIC (K.oxytoca C4022) | MIC (S.aureus ATCC29213) | MIC (MRSA C2208) | MIC (S.marcescens ATCC27117) | MIC (E.coli C4002) | MIC (S.epidermidis ATCC12228) | MIC (P.mirabilis ATCC25933) | MIC (P.aeruginosa C4070) | MIC (E.coli ATCC10536) | MIC (S.pyogenes ATCC 8668) | MIC (S.Faecalis ATCC29212) | MIC (E.coli ATCC25922) | MIC (P.aeruginosa ATCC10145) | MIC (E.cloacae C4008) | MIC (P.rettgeri ATCC9919) | MIC (E.cloacae C4009) | MIC (S.aureus Smith) | MIC (S.aureus C4036) | MIC (S.marcescens C1052) | Compound | other results |
| --- | --- | --- | --- | --- | --- | --- | --- | --- | --- | --- | --- | --- | --- | --- | --- | --- | --- | --- | --- | --- | --- |
| 6.25 mg/L (≈ 11.3 µM) | 6.25 mg/L (≈ 11.3 µM) | 3.13 mg/L (≈ 5.64 µM) | > 100 mg/L | 0.025 mg/L (≈ 0.0451 µM) | 0.05 mg/L (≈ 0.0902 µM) | 0.78 mg/L (≈ 1.41 µM) | 0.025 mg/L (≈ 0.0451 µM) | 12.5 mg/L (≈ 22.5 µM) | 0.013 mg/L (≈ 0.0234 µM) | 0.004 mg/L (≈ 0.00721 µM) | > 100 mg/L | 0.05 mg/L (≈ 0.0902 µM) | 12.5 mg/L (≈ 22.5 µM) | 0.013 mg/L (≈ 0.0234 µM) | 0.007 mg/L (≈ 0.0126 µM) | 0.025 mg/L (≈ 0.0451 µM) | 1.56 mg/L (≈ 2.81 µM) | 3.13 mg/L (≈ 5.64 µM) | 0.05 mg/L (≈ 0.0902 µM) | CO/N=C(\C(=O)N[C@@H]1C(=O)N2C(C(=O)[O-])=C(C[n+]3ccc4[nH]c(=NC#N)[nH]c4c3)CS[C@H]12)c1csc(N)n1 [Ex. 3, 7-β-[(Z)-2-(2-Aminothiazol-4-yl)-2-methoxyiminoacetamido]-3-[2-(1H,3H)-cyanoimine-imidazo[4,5-c]pyridiniummethyl]-3-cephem-4-carboxylate] | MIC (K.pneumoniae C1040): 0.025 mg/L (≈ 0.0451 µM); MIC (S.pyogenes C4003): 0.004 mg/L (≈ 0.00721 µM); MIC (K.pneumoniae ATCC10031): 0.007 mg/L (≈ 0.0126 µM); MIC (S.typhimurium C4045): 0.025 mg/L (≈ 0.0451 µM); MIC (P.aeruginosa C2027): 6.25 mg/L (≈ 11.3 µM) |
| > 100 mg/L | 12.5 mg/L (≈ 21.8 µM) | 1.56 mg/L (≈ 2.72 µM) | > 100 mg/L | 0.2 mg/L (≈ 0.348 µM) | 0.1 mg/L (≈ 0.174 µM) | 1.56 mg/L (≈ 2.72 µM) | 0.1 mg/L (≈ 0.174 µM) | > 100 mg/L | 0.05 mg/L (≈ 0.087 µM) | 0.013 mg/L (≈ 0.0226 µM) | > 100 mg/L | 0.1 mg/L (≈ 0.174 µM) | 50 mg/L (≈ 87 µM) | 0.05 mg/L (≈ 0.087 µM) | 0.025 mg/L (≈ 0.0435 µM) | 0.2 mg/L (≈ 0.348 µM) | 3.13 mg/L (≈ 5.45 µM) | 3.13 mg/L (≈ 5.45 µM) | 0.2 mg/L (≈ 0.348 µM) | CO/N=C(\C(=O)N[C@@H]1C(=O)N2C(C(=O)[O-])=C(C[n+]3ccc4c(c3)NC(=C[N+](=O)[O-])N4)CS[C@H]12)c1nsc(N)n1 [Ex. 2, 7-β-[(Z)-2-(5-Amino-1,2,4-thiadiazol-3-yl)-2-methoxyiminoacetamido]-3-[2-(1H,3H)-nitromethylen-yl-imidazo[4,5-c]-pyridiniummethyl]-3-cephem-4-carboxylate] | MIC (K.pneumoniae C1040): 0.05 mg/L (≈ 0.087 µM); MIC (S.pyogenes C4003): 0.007 mg/L (≈ 0.0122 µM); MIC (K.pneumoniae ATCC10031): 0.05 mg/L (≈ 0.087 µM); MIC (S.typhimurium C4045): 0.2 mg/L (≈ 0.348 µM); MIC (P.aeruginosa C2027): 6.25 mg/L (≈ 10.9 µM) |
| 25 mg/L (≈ 54.9 µM) | 0.78 mg/L (≈ 1.71 µM) | 1.56 mg/L (≈ 3.43 µM) | > 100 mg/L | 0.1 mg/L (≈ 0.22 µM) | 0.05 mg/L (≈ 0.11 µM) | 0.78 mg/L (≈ 1.71 µM) | 0.025 mg/L (≈ 0.0549 µM) | 50 mg/L (≈ 110 µM) | 0.025 mg/L (≈ 0.0549 µM) | 0.004 mg/L (≈ 0.00878 µM) | > 100 mg/L | 0.1 mg/L (≈ 0.22 µM) | 25 mg/L (≈ 54.9 µM) | 0.025 mg/L (≈ 0.0549 µM) | 0.004 mg/L (≈ 0.00878 µM) | 0.1 mg/L (≈ 0.22 µM) | 1.56 mg/L (≈ 3.43 µM) | 1.56 mg/L (≈ 3.43 µM) | 0.2 mg/L (≈ 0.439 µM) | CO/N=C(\C(=O)N[C@@H]1C(=O)N2C(C(=O)O)=C(COC(C)=O)CS[C@H]12)c1csc(N)n1 [CTX, Cefotaxime, reference compound] | MIC (K.pneumoniae C1040): 0.025 mg/L (≈ 0.0549 µM); MIC (S.pyogenes C4003): 0.004 mg/L (≈ 0.00878 µM); MIC (K.pneumoniae ATCC10031): 0.002 mg/L (≈ 0.00439 µM); MIC (S.typhimurium C4045): 0.05 mg/L (≈ 0.11 µM); MIC (P.aeruginosa C2027): 3.13 mg/L (≈ 6.87 µM) |
| 0.78 mg/L (≈ 1.42 µM) | 1.56 mg/L (≈ 2.84 µM) | 1.56 mg/L (≈ 2.84 µM) | > 100 mg/L | 0.007 mg/L (≈ 0.0127 µM) | 0.004 mg/L (≈ 0.00728 µM) | 0.78 mg/L (≈ 1.42 µM) | 0.025 mg/L (≈ 0.0455 µM) | 3.13 mg/L (≈ 5.7 µM) | 0.007 mg/L (≈ 0.0127 µM) | 0.007 mg/L (≈ 0.0127 µM) | > 100 mg/L | 0.026 mg/L (≈ 0.0473 µM) | 1.56 mg/L (≈ 2.84 µM) | 0.013 mg/L (≈ 0.0237 µM) | 0.004 mg/L (≈ 0.00728 µM) | 0.013 mg/L (≈ 0.0237 µM) | 1.56 mg/L (≈ 2.84 µM) | 3.13 mg/L (≈ 5.7 µM) | 0.004 mg/L (≈ 0.00728 µM) | Nc1nc(/C(=N/OCF)C(=O)N[C@@H]2C(=O)N3C(C(=O)[O-])=C(C[n+]4ccc5[nH]c(=O)[nH]c5c4)CS[C@H]23)ns1 [Ex. 9, 7-β-[(Z)-2-(5-Amino-1,2,4-thiadiazol-3-yl)-2-fluoromethoxyiminoacetamido]-3-[2-(1H, 3H)-oxo-imidazo[4,5-c]pyridiniummethyl]-3-cephem-4-carboxylate] | MIC (K.pneumoniae C1040): 0.004 mg/L (≈ 0.00728 µM); MIC (S.pyogenes C4003): 0.007 mg/L (≈ 0.0127 µM); MIC (K.pneumoniae ATCC10031): 0.002 mg/L (≈ 0.00364 µM); MIC (S.typhimurium C4045): 0.007 mg/L (≈ 0.0127 µM); MIC (P.aeruginosa C2027): 0.78 mg/L (≈ 1.42 µM) |
